Where a name gives a salt, the structure may show the parent alone.
Columns and labels:
[1] = molecular target: T1, V2 (Homo sapiens, UniProt P30518); assay: In vitro recombinant vasopressin receptor binding assay (V2 Bdg), displacement of 3H-arginine vasopressin; design: expressed in transfected cells; host or cells: HEK-293; conditions: for IC50: membrane with cloned human V-2 receptor (HEK-293); for V2 Bdg % inh: 0.1 uM, printed in parentheses in place of IC50
In short: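 Displacement of ³H-vasopressin from membranes of HEK-293 cells bearing cloned human V-2 receptor, incubated with test compound one hour at room temperature. Bound label was collected on PEI-soaked GF/C filters, washed with cold saline/0.05% Tween 20, and counted by scintillation.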

[2] = molecular target: T2, human V-1 receptor (Homo sapiens, UniProt P37288); assay: In vitro recombinant vasopressin receptor binding assay (V1 Bdg), displacement of 3H-arginine vasopressin; conditions: for inhibition at 0.1 µM: read-out: V1 Bdg (% inh, 0.1 uM)
T2 construct: expressed in transfected cells; host or cells: HEK-293
In short: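 Membranes from HEK-293 cells bearing cloned human V-1 receptor, incubated 1 h at room temperature with 0.65-0.75 nM 3H-arginine-8-vasopressin in pH 7.5 Tris/MgCl2/BSA buffer with protease inhibitors. Filtration onto GF/C, scintillation count. Non-specific binding with 1.25 uM arginine-8-vasopressin.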

[3] = molecular target: T1, V2; assay: V2 cAMP; assay type: cell-based

T2 sequence (P37288 whole entry): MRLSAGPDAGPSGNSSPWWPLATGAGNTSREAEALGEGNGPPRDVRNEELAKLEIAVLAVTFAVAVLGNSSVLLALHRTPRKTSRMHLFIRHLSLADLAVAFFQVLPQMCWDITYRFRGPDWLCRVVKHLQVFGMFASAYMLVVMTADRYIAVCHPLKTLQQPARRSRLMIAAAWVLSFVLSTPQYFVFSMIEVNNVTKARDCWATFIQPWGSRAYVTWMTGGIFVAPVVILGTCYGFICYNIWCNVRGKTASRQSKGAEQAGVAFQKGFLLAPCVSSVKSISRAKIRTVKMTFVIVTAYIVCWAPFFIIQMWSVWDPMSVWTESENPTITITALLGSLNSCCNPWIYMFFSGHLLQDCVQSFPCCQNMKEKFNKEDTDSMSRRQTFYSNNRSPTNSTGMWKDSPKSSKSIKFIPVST

Compound	melting point	IC50 [1] [nM]	inhibition at 0.1 µM [2] [%]	other results
O=C(Nc1ccc(C(=O)N2CC3COCCN3Cc3ccccc32)cc1O)c1ccccc1-c1ccccc1 (racemic) (as salt: HCl) [Compound 22, (RS)-2-Phenyl-N-[2-hydroxy-4-(1,3,4,12a-tetrahydro-6H-[1,4]oxazino[4,3-a][1,4]-benzodiazepin-11(12H)-yl-carbonyl)phenyl]benzamide]	188 to 195 °C (dec.)			
O=C(Nc1ccc(C(=O)N2C[C@H]3COCCN3Cc3ccccc32)c(Cl)c1)c1ccccc1-c1ccccc1 (as salt: HCl) (hydrate or solvate) [Compound 4, (S)-2-Phenyl-N-[3-chloro-4-(1,3,4,12a-tetrahydro-6H-[1,4]oxazino[4,3-a][1,4]-benzodiazepin-11(12H)-yl-carbonyl)phenyl]benzamide]	> 210 °C (dec.)			
Cc1ccc2c(c1)CN1CCSCC1CN2C(=O)c1ccc(NC(=O)c2ccccc2-c2ccccc2)cc1 (racemic) (as salt: HCl) [Compound 36, (RS)-2-Phenyl-N-[4-(8-methyl-1,3,4,12a-tetrahydro-6H-[1,4]thiazino[4,3-a][1,4]-benzodiazepin-11(12H)-yl-carbonyl)phenyl]benzamide]	191 to 196 °C			
O=C(Nc1ccc(C(=O)N2CC3CCCCN3Cc3ccccc32)cc1)c1ccccc1-c1ccccc1 (stereo not shown) (as salt: HCl) [Compound 1, 10-[4-[[(2-Biphenyl)carbonyl]amino]benzoyl]-10,11-dihydro-5H-piperidino[2,1-c][1,4]benzodiazepine]	191 to 193 °C			
O=C(Nc1ccc(C(=O)N2C[C@H]3CSCCN3Cc3ccccc32)c(Cl)c1)c1ccccc1-c1ccccc1 (as salt: HCl) [Compound 47, (S)-2-Phenyl-N-[3-chloro-4-(1,3,4,12a-tetrahydro-6H-[1,4]thiazino[4,3-a][1,4]-benzodiazepin-11(12H)-yl-carbonyl)phenyl]benzamide]	192 to 197 °C			
O=C(Nc1ccc(C(=O)N2CC3CSCCN3Cc3cc(F)c(F)cc32)cc1)c1ccccc1-c1ccccc1 (racemic) (as salt: HCl) [Compound 35, (RS)-2-Phenyl-N-[4-(8,9-difluoro-1,3,4,12a-tetrahydro-6H-[1,4]thiazino[4,3-a][1,4]-benzodiazepin-11(12H)-yl-carbonyl)phenyl]benzamide]	194 to 199 °C			
O=C(Nc1ccc(C(=O)N2CC3COCCN3Cc3ccccc32)c(O)c1)c1ccccc1-c1ccccc1 (racemic) (as salt: HCl) [Compound 23, (RS)-2-Phenyl-N-[3-hydroxy-4-(1,3,4,12a-tetrahydro-6H-[1,4]oxazino[4,3-a][1,4]-benzodiazepin-11(12H)-yl-carbonyl)phenyl]benzamide]	185 to 188 °C (dec.)			
O=C(Nc1ccc(C(=O)N2CC3CC=CCN3Cc3ccccc32)cc1)c1ccccc1-c1ccccc1 (stereo not shown) [Compound 2, 10-[4-[[(2-Biphenyl)carbonyl]amino]benzoyl]-10,11-dihydro-5H-(tetrahydropyridino)[2,1-c][1,4]benzodiazepine]		14	29	IC50 [3]: 460 nM
O=C(Nc1ccc(C(=O)N2CC3CSCCN3Cc3cc(F)ccc32)cc1)c1ccccc1-c1ccccc1 (racemic) (as salt: HCl) [Compound 32, (RS)-2-Phenyl-N-[4-(8-fluoro-1,3,4,12a-tetrahydro-6H-[1,4]thiazino[4,3-a][1,4]-benzodiazepin-11(12H)-yl-carbonyl)phenyl]benzamide]	177 to 180 °C			
COc1ccc2c(c1)CN1CCSCC1CN2C(=O)c1ccc(NC(=O)c2ccccc2-c2ccccc2)cc1 (racemic) [Compound 31, (RS)-2-Phenyl-N-[4-(8-methoxy-1,3,4,12a-tetrahydro-6H-[1,4]thiazino[4,3-a][1,4]-benzodiazepin-11(12H)-yl-carbonyl)phenyl]benzamide]		43		inhibition at 10 µM ([2]; 10 uM, read-out: V1 Bdg % inh): 27%
O=C(Nc1ccc(C(=O)N2CC3COCCN3Cc3ccccc32)cc1O)c1ccccc1-c1ccccc1 (racemic) [Compound 22, (RS)-2-Phenyl-N-[2-hydroxy-4-(1,3,4,12a-tetrahydro-6H-[1,4]oxazino[4,3-a][1,4]-benzodiazepin-11(12H)-yl-carbonyl)phenyl]benzamide]		6	67	
COc1cc(C(=O)N2CC3COCCN3Cc3ccccc32)ccc1NC(=O)c1ccccc1-c1ccccc1 (racemic) [Compound 15, (RS)-2-Phenyl-N-[2-methoxy-4-(1,3,4,12a-tetrahydro-6H-[1,4]oxazino[4,3-a][1,4]-benzodiazepin-11(12H)-yl-carbonyl)phenyl]benzamide]		13	69	
O=CN1CCN2Cc3ccccc3N(C(=O)c3ccc(NC(=O)c4ccccc4-c4ccccc4)cc3)CC2C1 (racemic) [Compound 59, (RS)-2-Phenyl-N-[4-(1,3,4,12a-tetrahydro-2-formyl-6H-[1,4]pyrazino[4,3-a][1,4]-benzodiazepin-11(12H)-yl-carbonyl)phenyl]benzamide]				V2 Bdg % inh [1]: (29%/0.1 uM); V1 Bdg % inh ([2]; 10 uM): (17%/10 uM)
Cc1csc(-c2cc(F)ccc2C(=O)Nc2ccc(C(=O)N3CC4COCCN4Cc4ccccc43)c(Cl)c2)c1 (racemic) [Compound 9, (RS)-2-(4-Methyl-2-thienyl)-4-fluoro-N-[3-chloro-4-(1,3,4,12a-tetrahydro-6H-[1,4]oxazino[4,3-a][1,4]-benzodiazepin-11(12H)-yl-carbonyl)phenyl]benzamide]		11	18	
CN1CCN2Cc3ccccc3N(C(=O)c3ccc(NC(=O)c4ccccc4-c4ccccc4)cc3)CC2C1 (racemic) [Compound 69, (RS)-2-Phenyl-N-[4-(1,3,4,12a-tetrahydro-2-methyl-6H-[1,4]pyrazino[4,3-a][1,4]-benzodiazepin-11(12H)-yl-carbonyl)phenyl]benzamide]				V2 Bdg % inh [1]: (38%/0.1 uM); V1 Bdg % inh ([2]; 1 uM): (22%/1 uM)
O=C(Nc1ccc(C(=O)N2C[C@H]3COCCN3Cc3ccccc32)c(Cl)c1)c1ccccc1-c1cccc(O)c1 [Compound 7, (S)-2-(3-Hydroxyphenyl)-N-[3-chloro-4-(1,3,4,12a-tetrahydro-6H-[1,4]oxazino[4,3-a][1,4]-benzodiazepin-11(12H)-yl-carbonyl)phenyl]benzamide]		11	1	
O=C(Nc1ccc(C(=O)N2CC3COCCN3Cc3ccccc32)c(Cl)c1)c1ccccc1SC(F)F (racemic) [Compound 19, (RS)-2-(Difluoromethylthio)-N-[3-chloro-4-(1,3,4,12a-tetrahydro-6H-[1,4]oxazino[4,3-a][1,4]-benzodiazepin-11(12H)-yl-carbonyl)phenyl]benzamide]		27	24	
O=C(Nc1ccc(C(=O)N2CC3COCCN3C(=O)c3ccccc32)c(Cl)c1)c1ccccc1-c1ccccc1 (racemic) [Compound 21, (RS)-2-Phenyl-N-[3-chloro-4-(1,3,4,12a-tetrahydro-6H-[1,4]oxazino[4,3-a][1,4]-5-oxo-benzodiazepin-11(12H)-yl-carbonyl)phenyl]benzamide]				V2 Bdg % inh [1]: (59%/0.1 uM); V1 Bdg (% inh, 0.1 uM) [2]: 2%
O=C(Nc1ccc(C(=O)N2CC3CN(CC(F)(F)F)CCN3Cc3ccccc32)c(Cl)c1)c1ccccc1-c1ccccc1 (racemic) [Compound 91, (RS)-2-Phenyl-N-[3-chloro-4-(1,3,4,12a-tetrahydro-2-(2,2,2-trifluoroethyl)-6H-[1,4]pyrazino[4,3-a][1,4]-benzodiazepin-11(12H)-yl-carbonyl)phenyl]benzamide]				V2 Bdg % inh [1]: (31%/0.1 uM); V1 Bdg % inh ([2]; 1 uM): (2%/1 uM)
CN1CCN2Cc3ccccc3N(C(=O)c3ccc(NC(=O)c4c(F)cccc4F)cc3Cl)CC2C1 (racemic) [Compound 99, (RS)-2,6-Difluoro-N-[3-chloro-4-(1,3,4,12a-tetrahydro-2-methyl-6H-[1,4]pyrazino[4,3-a][1,4]-benzodiazepin-11(12H)-yl-carbonyl)phenyl]benzamide]				V2 Bdg % inh [1]: (10%/0.1 uM); V1 Bdg % inh ([2]; 1 uM): (12%/1 uM)
O=C(Nc1ccc(C(=O)N2CC3CSCCN3Cc3cc(F)ccc32)c(Cl)c1)c1ccccc1-c1ccccc1 (racemic) [Compound 38, (RS)-2-Phenyl-N-[3-chloro-4-(8-fluoro-1,3,4,12a-tetrahydro-6H-[1,4]thiazino[4,3-a][1,4]-benzodiazepin-11 (12H)-yl-carbonyl)phenyl]benzamide]		18	9	
(RS)-3,5-Dimethyl-N-[3-chloro-4-(1,3,4,12a-tetrahydro-6H-[1,4]thiazino[4,3-a][1,4]-benzodiazepin-11(12H)-yl-carbonyl)phenyl]benzamide [Compound 41]				V2 Bdg % inh [1]: (38%/0.1 uM); V1 Bdg (% inh, 0.1 uM) [2]: 5%
